Reference: the Kinase Knowledgebase extract (Sharma et al. 2016)
Several values for one entry are separate records, joined by “and”; a condition that tells them apart may be missing. Equal entries are not always repeated.

What was measured:
EGFR (human) = EGFR (human) (UniProt P00533); settings: kb
EGFR = EGFR (UniProt P00533)
Chain of EGFR (P00533 whole entry, looked up): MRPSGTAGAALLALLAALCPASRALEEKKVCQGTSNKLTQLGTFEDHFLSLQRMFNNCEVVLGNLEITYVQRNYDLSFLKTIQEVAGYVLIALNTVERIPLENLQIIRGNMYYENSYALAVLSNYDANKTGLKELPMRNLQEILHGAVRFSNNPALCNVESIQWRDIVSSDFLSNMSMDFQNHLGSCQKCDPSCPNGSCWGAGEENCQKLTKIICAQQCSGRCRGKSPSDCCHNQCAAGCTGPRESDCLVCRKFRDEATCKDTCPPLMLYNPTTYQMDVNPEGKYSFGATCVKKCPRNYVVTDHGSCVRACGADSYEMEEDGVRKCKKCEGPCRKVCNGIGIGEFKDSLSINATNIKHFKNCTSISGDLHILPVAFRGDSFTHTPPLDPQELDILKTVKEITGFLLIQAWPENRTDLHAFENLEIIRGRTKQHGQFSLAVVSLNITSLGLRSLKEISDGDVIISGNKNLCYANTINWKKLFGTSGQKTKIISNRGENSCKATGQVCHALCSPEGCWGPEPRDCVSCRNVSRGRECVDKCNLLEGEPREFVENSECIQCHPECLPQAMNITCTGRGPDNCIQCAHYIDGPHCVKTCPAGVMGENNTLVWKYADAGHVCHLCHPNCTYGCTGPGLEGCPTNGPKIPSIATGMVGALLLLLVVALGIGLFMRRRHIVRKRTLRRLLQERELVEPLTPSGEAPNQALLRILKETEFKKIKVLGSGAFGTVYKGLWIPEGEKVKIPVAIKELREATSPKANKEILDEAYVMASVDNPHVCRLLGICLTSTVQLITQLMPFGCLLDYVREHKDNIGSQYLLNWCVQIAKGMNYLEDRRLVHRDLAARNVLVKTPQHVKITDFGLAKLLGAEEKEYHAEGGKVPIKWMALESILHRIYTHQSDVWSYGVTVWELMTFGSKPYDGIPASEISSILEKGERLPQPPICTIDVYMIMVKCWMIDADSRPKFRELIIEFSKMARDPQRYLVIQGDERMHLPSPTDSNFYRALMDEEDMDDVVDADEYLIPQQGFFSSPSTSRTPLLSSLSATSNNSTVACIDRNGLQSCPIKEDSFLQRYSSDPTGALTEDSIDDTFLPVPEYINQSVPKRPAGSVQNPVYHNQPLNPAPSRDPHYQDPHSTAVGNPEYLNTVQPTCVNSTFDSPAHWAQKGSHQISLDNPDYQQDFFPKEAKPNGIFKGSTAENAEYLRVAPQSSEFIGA

Chain of EGFR (human) (P00533 whole entry, looked up): as above

| SMILES | IC50 (EGFR (human)) [nM] | IC50 (EGFR) |
| --- | --- | --- |
| COc1cc2ncnc(Nc3cccc(Cl)c3F)c2cc1OC1CCN(C(=O)CO)CC1 | 1 to 100 | 3 nM and 1 to 100 nM |
| COc1cc2ncnc(Nc3cccc(Cl)c3F)c2cc1OC1CCN(C(=O)COP(=O)(O)O)CC1 | 1 to 100 | 1 to 100 nM |
